From patent publication US11214803B2, “Modulators of YAP1 expression” (Ionis Pharmaceuticals, Inc., priority 2019, dated 2022)
Strand notation (5' to 3'): a small letter for the sugar, then the base; units joined by * are phosphorothioate-linked, units joined directly phosphodiester-linked; [ ] holds rarer units or linkages, { } end groups; capitals alone tell only the bases. k = constrained ethyl (cEt); [5mC] = 5-methylcytosine; d = 2'-deoxy (DNA)

System: Yap1 mRNA
Assay: Antisense inhibition of human Yap1 in A-431 cells by cEt gapmers, single dose (Example 1, RTS4814)
Type: cell-based
Experimental: Modified oligonucleotides were designed to target a Yap1 nucleic acid and were tested for their effect on Yap1 mRNA level in vitro. The modified oligonucleotides were tested in a series of experiments that had similar culture conditions. Cultured A-431 cells at a density of 5,000 cells per well were treated using free uptake with 2,000 nM of modified oligonucleotide. After a treatment period of approximately 48 hours, RNA was isolated from the cells and Yap1 mRNA levels were measured by quantitative real-time RTPCR. Human primer probe set RTS4814 (forward sequence […], designated herein as SEQ ID NO.: 11; reverse sequence […], designated herein as SEQ ID NO.: 12; probe sequence […], designated herein as SEQ ID NO.: 13) was used to measure mRNA levels. Yap1 mRNA levels were normalized to total RNA content, as measured by RIBOGREEN®. Results are presented in the tables below as percent control of the amount of Yap1 mRNA relative to untreated control cells (% UTC). The modified oligonucleotides with percent control values marked with an asterisk (*) target the amplicon region of the primer probe set. Additional assays may be used to measure the potency and efficacy of the modified oligonucleotides targeting the amplicon region.
The newly designed modified oligonucleotides in the Tables below were designed as 3-10-3 cEt gapmers. The gapmers are 16 nucleosides in length, wherein the central gap segment comprises of ten 2′-deoxynucleosides and is flanked by wing segments on the 5′ direction and the 3′ direction comprising three nucleosides each. Each nucleoside in the 5′ wing segment and each nucleoside in the 3′ wing segment has a cEt sugar modification. The internucleoside linkages throughout each gapmer are phosphorothioate (P═S) linkages. All cytosine residues throughout each gapmer are 5-methylcytosines.
“Start site” indicates the 5′-most nucleoside to which the gapmer is targeted in the human gene sequence. “Stop site” indicates the 3′-most nucleoside to which the gapmer is targeted human gene sequence. […] Activity of the modified oligonucleotide may be defined in a different experiment.

[1] = Table 1, A-431 cells, free uptake, 2,000 nM, approximately 48 hours, RTS4814, Yap1 mRNA relative to untreated control cells
[2] = Table 2, A-431 cells, free uptake, 2,000 nM, approximately 48 hours, RTS4814, Yap1 mRNA relative to untreated control cells
[3] = A-431 cells, 5,000 cells per well, free uptake, 2,000 nM modified oligonucleotide, approx. 48 hours, RTS4814, normalized to RIBOGREEN, Table 3

| Substance | YAP1 (% UTC) [1] | YAP1 (% UTC) [2] | also measured |
| --- | --- | --- | --- |
| 715424 (kT*kG*k[5mC]*d[5mC]*dA*dT*dG*dT*dT*dG*dT*dT*dG*kT*k[5mC]*kT; antisense) [Compound 715424] | 58 % UTC |  |  |
| 715466 (antisense k[5mC]*kA*kA*dG*dG*dT*d[5mC]*d[5mC]*dA*d[5mC]*dA*dT*dT*kT*kG*kT) [Compound 715466] | 83 % UTC |  |  |
| 715446 (antisense kA*kT*kT*d[5mC]*d[5mC]*dT*dG*dA*dG*dA*d[5mC]*dA*dT*k[5mC]*k[5mC]*k[5mC]) [Compound 715446] |  | 81 % UTC |  |
| 715458 (antisense k[5mC]*kG*kA*dG*dA*dG*dT*dG*dA*dT*dA*dG*dG*kT*kG*k[5mC]) [Compound 715458] |  | 58 % UTC |  |
| 715588 (kA*kG*k[5mC]*dA*dG*d[5mC]*dT*dA*dA*d[5mC]*dA*dG*d[5mC]*kT*kT*kG; antisense) [Compound 715588] |  |  | YAP1 (% UTC) [3]: 96 % UTC |
| 715580 (kG*k[5mC]*k[5mC]*dT*dG*dT*d[5mC]*dT*dG*dG*dA*dA*dT*kA*k[5mC]*kA; antisense) [Compound 715580] | 101 % UTC |  |  |
| 715500 (antisense kA*kA*kG*d[5mC]*d[5mC]*dT*dT*dA*dG*dA*dG*dT*d[5mC]*kA*kA*kT) [Compound 715500] |  | 30 % UTC |  |
| 715537 (kA*k[5mC]*kT*dT*dG*dG*d[5mC]*dA*d[5mC]*d[5mC]*dA*dA*dA*kA*kG*k[5mC]; antisense) [Compound 715537] |  |  | YAP1 (% UTC) [3]: 122 % UTC |
| 715524 (kA*k[5mC]*kT*dT*dT*dA*dA*dG*dA*dA*dG*dT*dA*kT*k[5mC]*kT; antisense) [Compound 715524] |  | 93 % UTC |  |
| 715476 (antisense kA*kA*kA*dG*d[5mC]*dT*dT*dT*d[5mC]*dT*dT*dT*dA*kT*k[5mC]*kT) [Compound 715476] |  | 84 % UTC |  |
| 715517 (kG*kG*k[5mC]*d[5mC]*dT*dA*dT*dG*dA*dG*dT*d[5mC]*dA*kA*k[5mC]*k[5mC]; antisense) [Compound 715517] | 109 % UTC |  |  |
| 715566 (kT*kA*kG*dG*dA*dT*dA*dA*dA*dT*dG*dA*dA*kT*kT*kA; antisense) [Compound 715566] |  | 94 % UTC |  |
| 715405 (kT*kG*kA*dA*dG*dA*dA*dG*dG*dA*dG*dT*d[5mC]*kG*kG*kG; antisense) [Compound 715405] |  |  | YAP1 (% UTC) [3]: 60 % UTC |
| 715622 (antisense kA*kG*kT*dA*dA*dA*dA*dA*dA*dT*dA*dA*dG*kA*k[5mC]*kG) [Compound 715622] | 137 % UTC |  |  |
| 715519 (kT*kT*k[5mC]*d[5mC]*dA*d[5mC]*dT*d[5mC]*dA*dA*dG*dT*dT*kA*k[5mC]*kA; antisense) [Compound 715519] |  |  | YAP1 (% UTC) [3]: 96 % UTC |
| 715627 (antisense k[5mC]*kT*kA*d[5mC]*d[5mC]*dT*dG*dA*d[5mC]*dA*dT*dT*dT*kT*kG*kG) [Compound 715627] |  |  | YAP1 (% UTC) [3]: 88 % UTC |
| 715509 (antisense kT*kG*k[5mC]*dT*dG*dT*dG*d[5mC]*dT*dG*dG*dG*dA*kT*kT*kG) [Compound 715509] |  | 42 % UTC |  |
| 715571 (kA*kA*kA*dA*dT*d[5mC]*d[5mC]*dT*dG*d[5mC]*d[5mC]*dA*dA*k[5mC]*kA*kT; antisense) [Compound 715571] | 127 % UTC |  |  |
| 715478 (antisense kA*k[5mC]*k[5mC]*dA*dT*dT*dA*dT*dT*dA*d[5mC]*dT*d[5mC]*k[5mC]*kT*kG) [Compound 715478] | 7 % UTC |  |  |
| 715404 (kA*kA*kG*dA*dA*dG*dG*dA*dG*dT*d[5mC]*dG*dG*kG*k[5mC]*kA; antisense) [Compound 715404] |  | 64 % UTC |  |
| 715625 (antisense kA*kT*kT*dG*d[5mC]*d[5mC]*dT*dA*dA*dG*dA*dG*dT*kA*kA*kA) [Compound 715625] | 99 % UTC |  |  |
| 715550 (kA*kG*kG*dA*dA*dG*dT*dT*dG*dT*dT*dG*dA*k[5mC]*k[5mC]*kA; antisense) [Compound 715550] | 70 % UTC |  |  |
| 715526 (kA*k[5mC]*kT*dT*dA*d[5mC]*dT*dT*dT*dA*dA*dG*dA*kA*kG*kT; antisense) [Compound 715526] | 112 % UTC |  |  |

| Substance | YAP1 (% UTC) [1] | YAP1 (% UTC) [2] | also measured |
| --- | --- | --- | --- |
| 715492 (antisense kG*k[5mC]*kT*dA*dG*d[5mC]*dT*dG*dG*dT*dG*d[5mC]*d[5mC]*kA*k[5mC]*kT) [Compound 715492] |  |  | YAP1 (% UTC) [3]: 76 % UTC |
| 715514 (kG*kA*kG*d[5mC]*dG*dA*dA*dG*dG*dT*dG*d[5mC]*dG*kG*kA*kG; antisense) [Compound 715514] | 121 % UTC |  |  |
| 715429 (k[5mC]*k[5mC]*kT*dG*dA*dG*dT*d[5mC]*dA*dT*dG*dG*d[5mC]*kT*kT*kG; antisense) [Compound 715429] |  |  | YAP1 (% UTC) [3]: 62 % UTC |
| 715518 (kT*kT*kT*dG*dG*dG*d[5mC]*dA*dA*dA*dG*dT*dT*k[5mC]*k[5mC]*kT; antisense) [Compound 715518] |  | 60 % UTC |  |
| 715581 (kA*kA*kG*d[5mC]*d[5mC]*dT*dG*dT*d[5mC]*dT*dG*dG*dA*kA*kT*kA; antisense) [Compound 715581] |  | 106 % UTC |  |
| 715425 (kG*kT*k[5mC]*d[5mC]*dT*dG*d[5mC]*d[5mC]*dA*dT*dG*dT*dT*kG*kT*kT; antisense) [Compound 715425] |  | 98 % UTC |  |
| 715440 (antisense k[5mC]*kT*kG*dG*dT*dT*d[5mC]*dA*dT*dG*dG*d[5mC]*dA*kA*kA*kA) [Compound 715440] |  | 85 % UTC |  |
| 715426 (kA*kT*k[5mC]*d[5mC]*dA*dT*d[5mC]*dA*dG*dG*dA*dA*dG*kA*kG*kG; antisense) [Compound 715426] |  |  | YAP1 (% UTC) [3]: 80 % UTC |
| 715535 (k[5mC]*kT*kA*dT*dT*dA*dA*dG*d[5mC]*dT*dG*dT*dT*kT*kA*kA; antisense) [Compound 715535] | 91 % UTC |  |  |
| 715568 (kA*kA*kG*dG*dT*dA*dG*dG*dA*dT*dA*dA*dA*kT*kG*kA; antisense) [Compound 715568] | 116 % UTC |  |  |
| 715460 (antisense kA*kT*k[5mC]*dT*d[5mC]*dG*dA*dG*dA*dG*dT*dG*dA*kT*kA*kG) [Compound 715460] | 114 % UTC |  |  |
| 715410 (kA*kT*k[5mC]*dA*dG*dT*dA*d[5mC]*dT*dG*dG*d[5mC]*d[5mC]*kT*kG*kT; antisense) [Compound 715410] |  | 61 % UTC |  |
| 715593 (antisense kA*kT*kT*dT*d[5mC]*dT*dT*dT*dG*dG*d[5mC]*dA*dG*kA*kG*kA) [Compound 715593] |  | 60 % UTC |  |
| 715554 (kT*kA*kT*dT*d[5mC]*dA*dG*d[5mC]*dA*dG*d[5mC]*dT*dT*kA*kT*kA; antisense) [Compound 715554] |  | 93 % UTC |  |
| 715495 (antisense kA*k[5mC]*kA*dG*dA*dG*dG*dT*dG*d[5mC]*dT*dA*dG*k[5mC]*kT*kG) [Compound 715495] |  |  | YAP1 (% UTC) [3]: 80 % UTC |
| 715521 (kT*k[5mC]*kT*dT*d[5mC]*dT*dT*dT*d[5mC]*d[5mC]*dA*d[5mC]*dT*k[5mC]*kA*kA; antisense) [Compound 715521] |  | 72 % UTC |  |
| 715451 (antisense k[5mC]*kA*kT*dT*dG*dT*dT*d[5mC]*dT*d[5mC]*dA*dA*dT*kT*k[5mC]*k[5mC]) [Compound 715451] | 75 % UTC |  |  |
| 715473 (antisense kT*k[5mC]*kT*dT*dT*dA*dT*d[5mC]*dT*dA*dG*d[5mC]*dT*kT*kG*kG) [Compound 715473] |  | 32 % UTC |  |
| 715475 (antisense kA*kG*k[5mC]*dT*dT*dT*d[5mC]*dT*dT*dT*dA*dT*d[5mC]*kT*kA*kG) [Compound 715475] | 103 % UTC |  |  |
| 715489 (antisense kA*kA*k[5mC]*dT*dA*dT*dT*dA*d[5mC]*dT*dT*d[5mC]*dA*kT*kA*kG) [Compound 715489] |  |  | YAP1 (% UTC) [3]: 90 % UTC |
| 715515 (kT*kA*kT*dG*dA*dG*dT*d[5mC]*dA*dA*d[5mC]*d[5mC]*dT*kG*k[5mC]*kA; antisense) [Compound 715515] |  | 94 % UTC |  |
| 715408 (kG*k[5mC]*kG*dG*d[5mC]*dT*dT*dG*dA*dA*dG*dA*dA*kG*kG*kA; antisense) [Compound 715408] |  |  | YAP1 (% UTC) [3]: 60 % UTC |
